Values of other authors in patent US20220054380A1, “CANN[…] ESTERS FOR COSMETIC OR EDIBLE COMPOSITIONS” (EPM (IP), Inc., priority 2018, published 2022).

Assays:
rats [1] = settings: oral ingestion, low dose (1 mg/kg), two rat models
rats [2] = settings: compared with CBDA, 5-HT1A receptor-dependent
rats [3] = settings: compared with CBDA, 5-HT1A receptor-dependent; remark: listed apart in the source

In the case of `C=C(C)C1CCC(C)=C[C@H]1c1c(O)cc(CCCCC)c(C(=O)OC)c1O` (stereo partly drawn) [HU-580, Cannabidiolic Acid Methyl Ester], the anti-depressant effect (rats [1]) is listed as “potent anti-depressant effect”, the “potency at suppressing signs of acute and anticipatory nausea” value (rats [2]) is listed as “greater potency than CBDA” and the “potency at suppressing signs of stress-induced anxiety” value (rats [3]) is listed as “greater potency than CBDA”.
